Key:
Histone deacetylase 1 = Histone deacetylase 1 (Homo sapiens, UniProt Q13547); assay: Inhibition of HDAC1 (unknown origin) using Ac-peptide as substrate preincubated for 15 mins followed by substrate addition by fluorescence assay
Histone deacetylase 5 = Histone deacetylase 5 (Homo sapiens, UniProt Q9UQL6); assay: Inhibition of HDAC5 (unknown origin) using Ac-peptide as substrate preincubated for 15 mins followed by substrate addition by fluorescence assay
MGC-803 [1] = assay: cells; conditions: Homo sapiens, MGC-803, 72 h
HCT-116 = assay: cells; conditions: Homo sapiens, HCT-116, 72 h
[2] = target: T1, Lysine-specific histone demethylase 1A (Homo sapiens, UniProt O60341); assay: Inhibition of recombinant LSD1 (157 to 852 residues) (unknown origin) expressed in Escherichia coli BL21 (DE) using H3K4me2 as substrate by amplex red assay
[3] = target: T2, Protein deacetylase HDAC6 (Homo sapiens, UniProt Q9UBN7); assay: Inhibition of HDAC6 (unknown origin) using Ac-peptide as substrate preincubated for 15 mins followed by substrate addition by fluorescence assay
T2 sequence (Q9UBN7 whole entry): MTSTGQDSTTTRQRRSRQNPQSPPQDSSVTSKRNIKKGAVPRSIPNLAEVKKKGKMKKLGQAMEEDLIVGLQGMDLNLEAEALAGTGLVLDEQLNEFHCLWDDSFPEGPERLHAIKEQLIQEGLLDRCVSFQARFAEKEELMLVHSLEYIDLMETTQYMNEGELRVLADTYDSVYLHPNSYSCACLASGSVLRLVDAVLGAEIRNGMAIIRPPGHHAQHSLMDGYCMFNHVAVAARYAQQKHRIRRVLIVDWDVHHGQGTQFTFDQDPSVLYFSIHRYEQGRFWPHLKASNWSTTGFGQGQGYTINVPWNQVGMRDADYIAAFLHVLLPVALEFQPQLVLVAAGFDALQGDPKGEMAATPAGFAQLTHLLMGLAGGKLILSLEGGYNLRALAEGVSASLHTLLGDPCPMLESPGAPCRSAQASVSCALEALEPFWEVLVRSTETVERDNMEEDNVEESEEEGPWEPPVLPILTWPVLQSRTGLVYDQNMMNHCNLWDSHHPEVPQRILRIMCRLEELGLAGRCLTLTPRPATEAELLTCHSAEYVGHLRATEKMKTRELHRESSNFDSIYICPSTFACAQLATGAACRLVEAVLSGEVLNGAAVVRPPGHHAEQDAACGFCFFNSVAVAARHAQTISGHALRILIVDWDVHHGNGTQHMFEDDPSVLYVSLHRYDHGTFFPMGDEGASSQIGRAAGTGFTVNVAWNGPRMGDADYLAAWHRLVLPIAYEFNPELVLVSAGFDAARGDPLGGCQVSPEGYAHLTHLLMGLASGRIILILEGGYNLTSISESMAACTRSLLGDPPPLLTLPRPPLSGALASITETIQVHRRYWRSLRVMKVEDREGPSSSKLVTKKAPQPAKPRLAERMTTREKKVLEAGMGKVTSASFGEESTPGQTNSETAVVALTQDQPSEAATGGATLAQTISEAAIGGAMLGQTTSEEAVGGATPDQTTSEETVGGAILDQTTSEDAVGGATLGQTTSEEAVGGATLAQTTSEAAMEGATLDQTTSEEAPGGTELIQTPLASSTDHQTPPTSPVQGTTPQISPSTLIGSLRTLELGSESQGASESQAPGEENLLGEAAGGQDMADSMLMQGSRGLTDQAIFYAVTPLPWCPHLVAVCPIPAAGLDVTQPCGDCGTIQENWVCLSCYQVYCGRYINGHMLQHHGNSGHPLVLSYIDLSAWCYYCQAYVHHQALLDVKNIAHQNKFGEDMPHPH

[4] = target: T1, Lysine-specific histone demethylase 1A; assay: Inhibition of recombinant LSD1 (157 to 852 residues) (unknown origin) expressed in Escherichia coli BL21 (DE) at 10 uM using H3K4me2 as substrate by amplex red assay relative to control
Histone deacetylase 2 = Histone deacetylase 2 (Homo sapiens, UniProt Q92769)
CYP2C9 = CYP2C9 (Homo sapiens, UniProt P11712); assay: in vitro; conditions: probe diclofenac
MKN-1 = assay: cells; conditions: Homo sapiens, MKN-1, 72 h
NCI-N87 = assay: cells; conditions: Homo sapiens, NCI-N87, 72 h
AGS = assay: cells; conditions: Homo sapiens, 72 h
SNU1 = assay: cells; conditions: Homo sapiens, SNU1, 72 h
BGC-823 = assay: cells; conditions: Homo sapiens, BGC-823, 72 h
MKN-45 = assay: cells; conditions: Homo sapiens, MKN-45, 72 h
MGC-803 [5] = assay: Antiproliferative activity against human MGC-803 cells assessed as reduction in cell viability at 10 uM after 72 hrs by CellTiter-Glo assay; format: functional
CYP1A2 = target: T3, CYP1A2 (Homo sapiens, UniProt P05177); assay: in vitro; conditions: probe phenacetin
T3 sequence (P05177 whole entry): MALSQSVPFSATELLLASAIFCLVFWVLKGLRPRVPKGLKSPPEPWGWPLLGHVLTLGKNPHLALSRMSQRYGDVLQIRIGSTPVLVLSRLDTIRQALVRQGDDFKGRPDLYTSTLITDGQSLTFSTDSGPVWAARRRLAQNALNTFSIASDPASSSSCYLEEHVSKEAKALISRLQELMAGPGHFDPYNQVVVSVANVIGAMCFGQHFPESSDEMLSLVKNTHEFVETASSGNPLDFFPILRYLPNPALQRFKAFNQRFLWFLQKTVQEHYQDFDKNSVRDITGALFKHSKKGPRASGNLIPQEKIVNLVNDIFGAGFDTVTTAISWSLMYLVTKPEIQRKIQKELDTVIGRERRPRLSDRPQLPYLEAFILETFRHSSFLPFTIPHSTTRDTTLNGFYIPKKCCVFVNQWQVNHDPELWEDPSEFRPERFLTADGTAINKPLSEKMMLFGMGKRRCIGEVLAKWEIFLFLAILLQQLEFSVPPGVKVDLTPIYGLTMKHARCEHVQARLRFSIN

MGC-803 [6] = assay: Induction of apoptosis in human MGC-803 cells assessed as apoptotic cells at 5 uM incubated for 48 hrs by annexin V-FITC and PI staining based flowcytometry analysis (Rvb =4.3 %); format: functional

Sequence of Histone deacetylase 5 (Q9UQL6 whole entry): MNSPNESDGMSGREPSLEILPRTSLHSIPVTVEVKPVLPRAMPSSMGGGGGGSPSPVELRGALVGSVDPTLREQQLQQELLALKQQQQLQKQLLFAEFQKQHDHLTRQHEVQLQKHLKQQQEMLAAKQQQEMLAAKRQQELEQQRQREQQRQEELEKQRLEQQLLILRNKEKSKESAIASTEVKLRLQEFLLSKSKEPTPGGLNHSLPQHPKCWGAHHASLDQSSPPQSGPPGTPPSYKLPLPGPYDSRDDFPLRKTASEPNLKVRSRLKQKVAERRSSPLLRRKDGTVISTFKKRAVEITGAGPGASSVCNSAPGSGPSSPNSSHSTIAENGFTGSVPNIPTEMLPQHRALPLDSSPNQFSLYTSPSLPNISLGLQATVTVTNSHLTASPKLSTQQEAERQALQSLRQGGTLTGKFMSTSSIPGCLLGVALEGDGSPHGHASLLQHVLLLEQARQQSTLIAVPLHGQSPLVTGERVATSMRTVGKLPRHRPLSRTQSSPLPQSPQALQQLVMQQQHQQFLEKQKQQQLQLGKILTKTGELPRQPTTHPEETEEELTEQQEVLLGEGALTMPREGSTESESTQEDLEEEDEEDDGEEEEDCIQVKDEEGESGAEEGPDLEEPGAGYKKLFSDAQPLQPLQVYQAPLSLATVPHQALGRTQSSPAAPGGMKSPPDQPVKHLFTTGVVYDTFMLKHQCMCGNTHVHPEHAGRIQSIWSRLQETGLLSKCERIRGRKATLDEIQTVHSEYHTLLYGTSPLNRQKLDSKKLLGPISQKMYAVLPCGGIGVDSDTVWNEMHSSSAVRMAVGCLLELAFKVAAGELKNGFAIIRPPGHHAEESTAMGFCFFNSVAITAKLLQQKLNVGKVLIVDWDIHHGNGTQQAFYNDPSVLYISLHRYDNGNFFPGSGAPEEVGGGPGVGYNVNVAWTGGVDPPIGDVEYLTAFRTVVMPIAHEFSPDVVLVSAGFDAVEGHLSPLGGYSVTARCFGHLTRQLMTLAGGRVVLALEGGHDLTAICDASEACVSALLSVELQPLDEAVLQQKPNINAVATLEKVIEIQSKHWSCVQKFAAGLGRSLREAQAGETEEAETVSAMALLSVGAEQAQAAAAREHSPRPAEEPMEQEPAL
Sequence of Histone deacetylase 1 (Q13547 whole entry): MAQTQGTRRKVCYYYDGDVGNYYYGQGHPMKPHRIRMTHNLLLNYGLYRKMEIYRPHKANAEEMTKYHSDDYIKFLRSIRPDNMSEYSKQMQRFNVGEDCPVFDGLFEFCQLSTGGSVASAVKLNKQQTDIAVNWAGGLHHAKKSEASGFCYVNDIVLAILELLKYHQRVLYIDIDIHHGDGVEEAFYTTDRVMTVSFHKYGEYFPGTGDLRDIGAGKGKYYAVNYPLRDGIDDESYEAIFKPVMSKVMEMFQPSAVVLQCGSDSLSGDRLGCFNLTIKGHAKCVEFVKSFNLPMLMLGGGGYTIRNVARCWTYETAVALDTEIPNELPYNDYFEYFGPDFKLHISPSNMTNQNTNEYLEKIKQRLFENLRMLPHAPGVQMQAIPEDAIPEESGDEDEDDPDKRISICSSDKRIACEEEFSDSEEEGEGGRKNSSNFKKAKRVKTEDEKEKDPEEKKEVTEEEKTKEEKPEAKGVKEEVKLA
Sequence of Histone deacetylase 2 (Q92769 whole entry): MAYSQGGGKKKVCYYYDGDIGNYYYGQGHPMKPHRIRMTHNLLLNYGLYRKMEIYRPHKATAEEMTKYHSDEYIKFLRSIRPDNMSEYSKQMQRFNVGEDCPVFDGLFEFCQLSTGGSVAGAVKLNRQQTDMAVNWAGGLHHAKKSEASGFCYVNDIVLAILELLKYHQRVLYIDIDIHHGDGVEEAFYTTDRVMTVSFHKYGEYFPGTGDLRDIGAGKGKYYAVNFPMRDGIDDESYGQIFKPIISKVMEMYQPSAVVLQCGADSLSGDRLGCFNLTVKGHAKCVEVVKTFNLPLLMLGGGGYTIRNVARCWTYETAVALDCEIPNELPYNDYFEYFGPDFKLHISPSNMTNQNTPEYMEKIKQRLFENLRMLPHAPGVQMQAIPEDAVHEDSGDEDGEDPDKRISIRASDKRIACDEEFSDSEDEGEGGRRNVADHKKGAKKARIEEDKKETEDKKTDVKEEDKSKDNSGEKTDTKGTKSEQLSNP
Sequence of CYP2C9 (P11712 whole entry): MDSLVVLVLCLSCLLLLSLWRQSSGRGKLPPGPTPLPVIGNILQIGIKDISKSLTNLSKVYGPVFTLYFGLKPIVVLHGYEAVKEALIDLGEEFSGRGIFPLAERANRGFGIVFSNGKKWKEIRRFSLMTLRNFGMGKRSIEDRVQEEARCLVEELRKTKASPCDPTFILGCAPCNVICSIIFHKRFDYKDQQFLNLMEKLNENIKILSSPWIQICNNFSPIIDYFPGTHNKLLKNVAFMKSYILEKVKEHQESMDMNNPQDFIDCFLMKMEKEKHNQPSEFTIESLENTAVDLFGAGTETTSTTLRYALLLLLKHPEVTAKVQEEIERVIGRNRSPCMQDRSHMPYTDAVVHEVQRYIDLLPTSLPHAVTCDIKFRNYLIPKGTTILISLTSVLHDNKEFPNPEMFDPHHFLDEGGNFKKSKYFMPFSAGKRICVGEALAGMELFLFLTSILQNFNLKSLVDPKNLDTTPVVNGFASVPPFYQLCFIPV

Compound | IC50 (Histone deacetylase 1) [nM] | IC50 (Histone deacetylase 5) [nM] | IC50 (MGC-803 [1]) [nM] | IC50 (HCT-116) [nM] | IC50 [2] [nM] | IC50 [3] [nM] | further results
O=C(NO)c1ccc(/C=C/c2ccnc(Br)c2)cc1 | 3660 | > 10000 | > 10000 | > 10000 | 1020 | 320 | –
Cc1ccc(-c2cc(/C=C/c3ccc(C(=O)NO)cc3)c(F)cn2)cc1 | 1180 | – | > 10000 | > 10000 | – | – | inhibition [4]: 20.7%
Cc1ccc(-c2cncc(/C=C/c3ccc(C(=O)NO)cc3)c2)cc1 | 43600 | – | > 10000 | > 10000 | – | – | inhibition [4]: 29.8%
Nc1ccc(S(=O)(=O)Nc2ccnn2-c2ccccc2)cc1 [SULFAPHENAZOLE] | – | – | – | – | – | – | inhibition at 1 µM (CYP2C9): 79.9%
C/C(=N\NC(=O)c1cccc(S(=O)(=O)N2CCOCC2)c1)c1cc(Cl)ccc1O | – | – | – | – | – | – | IC50 (MKN-1): 8980 nM; IC50 (NCI-N87): 10500 nM; IC50 (AGS): 6190 nM; IC50 (SNU1): 8030 nM; IC50 (BGC-823): 8080 nM; IC50 (MKN-45): 26700 nM
O=C(NO)c1ccc(/C=C/c2cccc(-c3cc(F)ccc3O)c2)cc1 | 2120 | > 10000 | > 10000 | > 10000 | 3510 | 240 | –
N[C@H]1CC[C@H](N[C@@H]2C[C@H]2c2ccccc2)CC1 | – | – | – | – | – | – | IC50 (MKN-1): > 50000 nM; IC50 (NCI-N87): > 50000 nM; IC50 (AGS): > 50000 nM; IC50 (SNU1): > 50000 nM; IC50 (BGC-823): > 50000 nM; IC50 (MKN-45): > 50000 nM
N/C(=N\O)c1cccc(/C=C/c2ccnc(-c3cc(F)ccc3O)c2)c1 | – | – | – | – | – | – | inhibition at 10 µM (MGC-803 [5]): 35.3%
O=C(/C=C/c1ccc(/C=C/c2ccnc(-c3ccccc3O)c2)cc1)NO | 470 | – | > 10000 | > 10000 | – | – | inhibition [4]: 22.9%
O=c1cc(-c2ccccc2)oc2c1ccc1ccccc12 [ALPHA-NAPHTHOFLAVONE] | – | – | – | – | – | – | inhibition at 0.2 µM (CYP1A2): 90.9%
O=C(NO)c1ccc(/C=C/c2ccnc(-c3ccc(F)cc3)c2)cc1 | – | – | > 10000 | > 10000 | – | – | inhibition [4]: 21.2%
O=C(NO)c1ccc(/C=C/c2cc(-c3ccc(C(F)(F)F)cc3)ncc2F)cc1 | 2950 | – | > 10000 | > 10000 | – | – | inhibition [4]: 5.6%
O=C(NO)c1ccc(/C=C/c2cncc(-c3ccc(C(F)(F)F)cc3)c2)cc1 | – | – | > 10000 | > 10000 | – | – | inhibition [4]: 5.6%

Now from value to compound, other results behind:

IC50 (Histone deacetylase 1) [nM] | IC50 (Histone deacetylase 5) [nM] | IC50 (MGC-803 [1]) [nM] | IC50 (HCT-116) [nM] | IC50 [2] [nM] | IC50 [3] [nM] | Compound | further results
290 | > 10000 | 2100 | 1610 | 1830 | 19 | O=C(NO)c1ccc(/C=C/c2ccnc(-c3cccc(O)c3)c2)cc1 | –
4840 | – | > 10000 | > 10000 | – | – | O=C(NO)c1ccc(/C=C/c2ccnc(-c3ccc(C(F)(F)F)cc3)c2)cc1 | inhibition [4]: 33%
1510 | > 10000 | 2710 | 3890 | – | 400 | O=C(NO)c1cccc(/C=C/c2ccnc(-c3cc(F)ccc3O)c2)c1 | IC50 (Histone deacetylase 2): 2060 nM
210 | > 10000 | 3680 | 1910 | 2030 | 54 | O=C(NO)c1ccc(/C=C/c2ccnc(-c3ccsc3)c2)cc1 | –
690 | > 10000 | 3510 | 3560 | 1900 | 110 | COc1ccc(-c2cc(/C=C/c3ccc(C(=O)NO)cc3)ccn2)cc1 | –
1040 | > 10000 | 6350 | 8440 | 1070 | 28 | COc1ccccc1-c1cc(/C=C/c2ccc(C(=O)NO)cc2)ccn1 | –
280 | > 10000 | 1740 | 1700 | 1140 | 34 | O=C(NO)c1ccc(/C=C/c2ccnc(-c3cccc(CO)c3)c2)cc1 | –
670 | > 10000 | 3360 | 3410 | 1600 | 93 | COc1ccc(F)cc1-c1cncc(/C=C/c2ccc(C(=O)NO)cc2)c1 | –
1070 | > 10000 | 2240 | 2990 | 3060 | 150 | Cc1ccc(-c2cncc(/C=C/c3ccc(C(=O)NO)cc3)c2)c(F)c1 | –
1470 | > 10000 | 2810 | 3360 | 2260 | 390 | O=C(NO)c1cccc(/C=C/c2ccnc(-c3ccccc3O)c2)c1 | IC50 (Histone deacetylase 2): 1870 nM
960 | > 10000 | 1910 | 2390 | 2700 | 150 | Cc1ccc(-c2cc(/C=C/c3ccc(C(=O)NO)cc3)ccn2)cc1 | –
3370 | > 10000 | 5460 | 4680 | 510 | 13 | O=C(NO)c1ccc(/C=C/c2cncc(-c3ccccc3O)c2)cc1 | –
630 | > 10000 | 3930 | 3910 | 850 | 130 | O=C(NO)c1ccc(/C=C/c2ccncc2)cc1 | –
1240 | > 10000 | 8820 | > 10000 | 3650 | 200 | O=C(NO)c1ccc(/C=C/c2cccc(-c3cccc(O)c3)c2)cc1 | –
580 | > 10000 | 4550 | 5140 | 1370 | 14 | O=C(NO)c1ccc(/C=C/c2ccnc(-c3cccnc3)c2)cc1 | –
1140 | 9340 | 1920 | 2040 | 2200 | 130 | O=C(NO)c1ccc(/C=C/c2ccnc(-c3cc(F)ccc3O)c2)cc1 | –
– | – | 1540 | 1850 | – | – | O=C(CCCCCCC(=O)Nc1ccccc1)NO [VORINOSTAT] | Activity (MGC-803 [6]): 73.8%
880 | – | 2510 | 1670 | – | – | Cc1ccc(-c2cc(/C=C/c3ccc(C(=O)NO)cc3)c(F)cn2)c(F)c1 | inhibition [4]: 55.2%
930 | > 10000 | 5990 | 4230 | 1950 | 180 | O=C(NO)c1ccc(/C=C/c2cccc(-c3ccccc3O)c2)cc1 | –

Reference: ChEMBL document CHEMBL5038581, “Design, synthesis, and biological evaluation of novel dual inhibitors targeting lysine specific demethylase 1 (LSD1) and histone deacetylases (HDAC) for treatment of gastric cancer” (Eur J Med Chem, 2021)
